Laboratory results taken from patent US20050100507A1, “Chemotactic peptide antagonists for imaging sites of inflammation” (Bracco Imaging S.p.A., priority 1998, published 2005).
pIC50: −log10 of the molar value. Square brackets hold non-standard residues; d marks the D form. Ends that are not written are not given here. * marks the point of attachment. Acetyl(9-fluorenyl) = O=C(CC1c2ccccc2-c2ccccc21)*; N,N‑diphenylcarbamoyl = O=C(N(c1ccccc1)c1ccccc1)*; N,N‑diethylcarbamoyl = CCN(CC)C(=O)*; Cyclopropanecarbonyl = O=C(C1CC1)*; Nle = CCCC[C@H](N)C(=O)O

What was measured:
Rat FPR = target: T1, Rat FPR (Rattus norvegicus, UniProt D4A7Q2); experiment: Competition binding with 6 nM 3H-fMLF to elicited rat PMNs; settings: for competition binding of N-terminal modified NleLFK peptides (FIG. 8): peptides at 1 uM and 10 uM
T1 construct: endogenous in cells; host or cells: glycogen-elicited peritoneal neutrophils (PMNs) of Sprague-Dawley rats
T1 sequence (D4A7Q2 1-355): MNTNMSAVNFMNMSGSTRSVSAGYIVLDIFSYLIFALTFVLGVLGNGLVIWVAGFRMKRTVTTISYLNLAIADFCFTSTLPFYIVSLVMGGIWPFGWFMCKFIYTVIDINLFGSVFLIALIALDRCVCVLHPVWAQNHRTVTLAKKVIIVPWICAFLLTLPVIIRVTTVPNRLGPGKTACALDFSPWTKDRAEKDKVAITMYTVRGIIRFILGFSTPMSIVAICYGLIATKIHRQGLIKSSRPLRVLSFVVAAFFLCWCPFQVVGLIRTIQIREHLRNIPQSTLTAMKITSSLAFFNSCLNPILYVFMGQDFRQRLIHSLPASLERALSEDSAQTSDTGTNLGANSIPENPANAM
Method: (§1) Animals were sacrificed via administration of CO2 4 hours following peritoneal injection of 10 mL of 0.5% (w/v) oyster glycogen warmed to room temperature. Leukocyte harvesting via peritoneal lavage was performed using 20 mL of Hanks' buffered salt solution (HBSS−) containing 10 mM ethylene-diaminetetra-acetic acid (EDTA) disodium salt followed by a second lavage with 10 mL of HBSS− containing 10 mM EDTA. Exactly the same technique was performed on all rats with washes of the peritoneum prior to aspiration of samples approximating 1 minute. The volume of fluid recovered from each rat was approximately 20-25 mL and bloody lavages visibly containing significant red blood cell (RBC) populations were discarded.
(§2) Neutrophils isolated by peritoneal lavage were washed twice with 1 mL of HBSS− (without calcium chloride, magnesium chloride and magnesium sulfate) and centrifuged for ten minutes at 2000 rpms following each wash. PMNs utilized in functional assays were centrifuged at 25° C. while those used in binding assays were centrifuged at 4° C. to prevent internalization. A cold H2O RBC lysis was then performed with the addition of 9 mL of sterile ice-cold H2O and 1 mL of phosphate buffered saline (PBS) solution containing 0.1 M phosphate buffer, 0.027 M KCl and 1.37 M NaCl following resuspension of the sample in 1 mL of HBSS. Centrifugation was subsequently performed for ten minutes at 1600 rpms. White blood cell (WBC) differential stain containing saline, 2% acidic acid and phenol violet dye was used to identify the neutrophil population and trypan blue exclusion was used to determine viability of cells. As previously reported, 98% of leukocytes were neutrophils and approximately 95% of the cells were viable (Chen et al., 1996).
Competition binding assays for N-terminal capping groups and Re-libraries were conducted with 6 nM ^3H-fMLP in addition to the unlabelled competing analogue added at 1.0 uM and 10 uM to each well. […] Total binding in the competition assays was assessed in the presence of 1.0×10^6 PMNs per sample while non-specific binding was determined in the absence of cells. Each condition was performed in quadruplicate. Total activity added to each sample was determined from cpms obtained from a sample containing 6 nM ^3H-fMLF. Data was expressed as specific binding in fmols and converted to percent of total ^3H-fMLF binding (% control).
After a 1 hour incubation period at 4° C., the samples were harvested with the Tomtec Mach III Cell Harvester by vacuum aspiration onto 1.5 um pore size Skatron glass-fibre filter mats pre-treated with 0.1% polyethylenimine (w/v) for approximately 24 hours. Sample wells received three consecutive 12 second washes with 0.9% saline solution and 5 mL of liquid scintillation fluid was added to collected filters. Filters were counted for 2 minutes in the Beckman β-counter following exposure to scintillation fluid for 15 hours. Data was expressed in terms of specific binding in fmols converted to percent of total ^3H-fMLF binding (% control).
(§3) The curve-fitting program Prism was used to calculate KD, IC50 and EC50 values by fitting data to the one-site binding equations A, B and C respectively. • A. Equation: One site binding (hyperbola) Y=Bmax*X/(KD+X) • B. Equation: One site competition Y=Bottom+(Top−Bottom)/(1+10^(X−LogIC50)); with x=log (concentration) and y=binding • C. […] Additionally, Graph fit software was used to perform Scatchard analysis of saturation binding data and to confirm KD and Bmax values generated by Prism software.

human neutrophils = experiment: Myeloperoxidase release from human neutrophils; format: cell-based; settings: result in words; for inhibition of MPO release in fMLF-stimulated human neutrophils (FIG. 4): 10 uM compound, fMLF 10^−8 M and 10^−6 M, p<0.05; for stimulation of MPO release by the compound itself in human neutrophils: up to 10 uM compound, low fMLF (10^−14M, 10^−12M)
Method: Approximately 30 mL of venous blood was collected from healthy volunteers with 100 units of heparin per mL of blood. Samples were then mixed with 8 mL of 6% dextran solution and incubated at 37° C. for 1 hour for RBC sedimentation. Leukocyte-rich plasma was collected and centrifuged at 1500 rpm for 5 minutes. Cell pellets were resuspended in 35 mL of saline and 10 mL of lymphocyte separation medium was layered over prior to additional centrifugation at 1200 rpm for 30 minutes. Sedimented cells were washed once with 35 mL of saline and RBCs were lysed by resuspension in 1.8 mL of sterile H2O for 15 seconds. Isotonicity was restored with the addition of 0.2 mL of 10×HBSS− followed by the addition of 35 mL of saline. Centrifugation at 1500 rpm for 5 minutes was then performed. Following final washing of the PMN pellet with 35 mL of saline, cell viability was determined via trypan blue exclusion and cell number was determined.
(§4) 0.5×10^6 PMNs per sample were incubated in 96-well Millipore Multiscreen 0.65 um filter plates. In a final volume of 150 uL, 50 uL of the respective fMLP analogues (10 uM to 1 pM) and/or fMLP (10 uM to 1.0 uM) were incubated with isolated PMNs pre-treated with cytochalasin B (5 ug/mL) for 10 minutes. Following a 30 minute incubation period at room temperature, the supernatant was collected into a 96-well polypropylene plate with the Millipore vacuum apparatus. A stock solution of o-phenylenediamine (OPD) was made to contain 2.5 mg of OPD, 5 ul of H2O2 and 10 mL HBSS+ and supernatant samples were subsequently incubated with 50 uL of OPD solution. The reaction was stopped after 2 minutes by the addition of 2.5M H2SO4. Photometric analysis was performed with the Thermomax Microplate Reader with optical density (O.D.490) values being read at a wavelength of 490 nm. Absorbance was measured against a blank containing 150 μl of HBSS+ which was subtracted from wells containing cells and the various treatments. MPO release was expressed as a percentage of the total release of myeloperoxidase in control wells containing cells ±fMLF.

elicited rat PMNs [1] = format: cell-based; settings: MPO release, PMNs without fMLF, ± S.E.M.; for % Control (1 uM): test peptide 1 uM; for % Control (10 uM): test peptide 10 uM
Method: as §1, §2, §4, §3

elicited rat PMNs [2] = experiment: Myeloperoxidase release in elicited rat PMNs co-stimulated with 0.1 uM fMLF; format: cell-based; settings: for antagonist function on MPO release in fMLF stimulated rat PMNs: 0.1 uM fMLF, inhibition at 10 uM, result in words; for % Control MPO release (1 uM capping group + 0.1 uM fMLF): 1 uM test peptide + 0.1 uM fMLF; for % Control MPO release (1 uM capping group + 0.1 uM fMLF) / % Control MPO Release (10 uM capping group + 0.1 uM fMLF): ± S.E.M.; for % Control MPO Release (10 uM capping group + 0.1 uM fMLF): 10 uM test peptide + 0.1 uM fMLF
Method: as §1, §2
as §4, with “In a final volume of 150 uL, 50 uL of the respective fMLP analogues (10 uM to 1 pM) and/or fMLP (10 uM to 1.0 uM) were incubated with isolated PMNs pre-treated with cytochalasin B (5 ug/mL) for 10 minutes.” left out

Molecule	pIC50 (Rat FPR; elicited rat PMNs, 6 nM 3H-fMLF, 4° C. 1 hour, brackets = 95% confidence interval, read-out: Receptor Binding (IC50))	inhibition of MPO release in fMLF-stimulated human neutrophils (FIG. 4) (human neutrophils)	stimulation of MPO release by the compound itself in human neutrophils (human neutrophils)	competition binding of N-terminal modified NleLFK peptides (FIG. 8) (Rat FPR; 6 nM 3H-fMLF, result in words)	% Control (1 uM) (elicited rat PMNs [1])	% Control (10 uM) (elicited rat PMNs [1])	antagonist function on MPO release in fMLF stimulated rat PMNs (elicited rat PMNs [2])	% Control MPO release (1 uM capping group + 0.1 uM fMLF) (elicited rat PMNs [2])	% Control MPO Release (10 uM capping group + 0.1 uM fMLF) (elicited rat PMNs [2])	inhibition of 3H-fMLF binding at 10 uM compared with iso-BocMLFK (FIG. 8) (Rat FPR; peptide 10 uM, 6 nM 3H-fMLF, result in words)	competition binding of N-terminal modified NleLFK peptides (FIG. 8) (Rat FPR; 6 nM 3H-fMLF, result in words, listed as 6)	competition binding of N-terminal modified NleLFK peptides (FIG. 8) (Rat FPR; 6 nM 3H-fMLF, result in words, listed as N,N-diethylcarbamoyl-NleLFK)	binding affinity, fold greater than N-t-BocMLF (Rat FPR; from rat FPR IC50 values)
CSCC[C@H](NC(=O)OC(C)(C)C)C(=O)N[C@@H](CC(C)C)C(=O)N[C@@H](Cc1ccccc1)C(=O)O [N-t-BocMLF, N-tert-butyloxycarbonylated-methionyl-leucyl-phenylalanine, reference compound]	5.03	inhibited MPO release from fMLF stimulated cells	did not induce release										
Capping Group 16: Fluorenylmethylcarbonyl N-terminal capping group attached to peptide NleLFK ({Acetyl(9-fluorenyl)}-[Nle]LFK)				did not significantly decrease the amount of ^3H-fMLF binding	84.1 ± 27.6 % control	59.9 ± 19.0 % control	exhibited antagonist function in fMLF stimulated cells	161.7 ± 6.2 % control	108.9 ± 28.5 % control				
Capping Group 18: N,N-diphenylcarbamoyl N-terminal capping group attached to peptide NleLFK ({N,N‑diphenylcarbamoyl}-[Nle]LFK)				do not nullify binding affinity	142.7 ± 8.8 % control	125.2 ± 1.5 % control		321.6 ± 8.6 % control	185.9 ± 15.7 % control	inhibited ^3H-fMLF binding to a degree comparable with known antagonist iso-BocMLFK			
N,N-diethylcarbamoyl-NleLFK ({N,N‑diethylcarbamoyl}-[Nle]LFK) [Capping Group 6]					113.8 ± 14.3 % control	109.6 ± 3.3 % control	inhibited MPO release	283.3 ± 25.1 % control	249.9 ± 6.2 % control		did not significantly decrease the amount of ^3H-fMLF binding	inhibit ^3H-fMLF binding	
ReO-CyclopropylCONH-nleu-leu-phe-trp-glu-lys(dimethylgly-t-butylgly-cys-gly)-gly-OH (Cyclopropanecarbonyl-[Nle]LFWEKG-OH; not fully specified (residue 6); printed as ReO-CyclopropylCONH-nleu-leu-phe-trp-glu-lys(dimethylgly-t-butylgly-cys-gly)-gly-OH; also: ReO chelate on Lys side chain) [ReORP553 17-01]		significantly inhibited the release of MPO	did not stimulate MPO release										approximately 12 fold
